The test system of one experiment is hESC-CM. Nature of the experiment: AFM measurement of beat force and beat rate of solitary hESC-derived cardiomyocytes. Format: cell-based, human. The text has this: (§1) In step 1441, the nanoscale tip of the microscale cantilever of the AFM is controlled to apply gentle pressure to a location on the cardiomyocyte. […] In experimental embodiments described in more detail below, one or more cardiomyocytes were gently contacted by the cantilever tip with 100 pN of force, producing a typical cellular indentation of about 200 nm to about 500 nm. In various embodiments the contact force falls in a range from about 0.05 to about 1 nN. Thus, in some embodiments, a method includes operating a controller for the microscale cantilever to cause the nanoscale tip to contact the cardiomyocyte at a predetermined pressure.
(§2) In step 1443, the indentation is measured and the vertical deflection feedback is turned off to allow the cantilever to move with the contractions of the beating cardiomyocyte. […]
(§3) In step 1445, the time history of vertical deflection of the cantilever at the location on the cell is measured and recorded. FIG. 15 is a graph 1500 that illustrates an example measured force time series when the AFM cantilever interacts with the living cardiomyocyte, according to an embodiment. […]
(§4) In step 1447, beat characteristics of the cell are determined. For example, the beat force, duration (width) and rate (frequency) are determined based on the time history of vertical deflection in trace 1510. […]

Another experiment has as its system iPSC-CM. Nature of the experiment: AFM measurement of beat force and beat rate of solitary iPSC-derived cardiomyocytes. Format: cell-based, human.
Description: as §1, §2, §3, §4

Each structure is given as a SMILES string.

With `NC[C@H](O)c1ccc(O)c(O)c1` [norepinephrine, 4-[(1R)-2-amino-1-hydroxyethyl]benzene-1,2-diol], the “effect on the beat rate” value in the experiment with hESC-CM (hESC-CM after treatment with norepinephrine 100 μmol/L) is “minimal effect”. The “contraction force (beat force) after treatment” value was 0.31±0.03 nN in the experiment with hESC-CM (solitary hESC-CM, norepinephrine 100 μmol/L, immediately following treatment, before treatment 0.097±0.019 nN, p<0.001) and 0.48±0.23 nN with iPSC-CM (solitary iPSC-CM, norepinephrine 100 μmol/L, immediately following treatment, before treatment 0.18±0.06 nN, p<0.001). For the same compound, the “beats faster than a cutoff of 1.7 beats/s” value with iPSC-CM (iPSC-CM after applying NE 100 μmol/L, 6% prior to treatment) was 21%.

Source of the values: patent US8495760B2, “Atomic force microscope manipulation of living cells” (The Board of Trustees of the Leland Stanford Junior …, priority 2010, dated 2013).
